Values belong to the compound of their own block, whether it stands above or below them.
Experiments:
Assay in all cases: Kinase assay, binding constants (Kd), kinase-tagged T7 phage, qPCR
FGFR1 = FGFR1 (Homo sapiens (Human), UniProt P11362)
How it was run: (§1)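 Competition binding: kinase-tagged T7 phage lysates mixed with immobilized biotinylated ligand on streptavidin beads plus compound (11-point 3-fold dilution series, 0.9% DMSO final). Bound kinase eluted with free ligand and quantified by qPCR. Kd from Hill equation fit, slope fixed at −1.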

FGFR2 = FGFR2 (Homo sapiens (Human), UniProt P21802)
Sequence of FGFR2 (P21802 22-821): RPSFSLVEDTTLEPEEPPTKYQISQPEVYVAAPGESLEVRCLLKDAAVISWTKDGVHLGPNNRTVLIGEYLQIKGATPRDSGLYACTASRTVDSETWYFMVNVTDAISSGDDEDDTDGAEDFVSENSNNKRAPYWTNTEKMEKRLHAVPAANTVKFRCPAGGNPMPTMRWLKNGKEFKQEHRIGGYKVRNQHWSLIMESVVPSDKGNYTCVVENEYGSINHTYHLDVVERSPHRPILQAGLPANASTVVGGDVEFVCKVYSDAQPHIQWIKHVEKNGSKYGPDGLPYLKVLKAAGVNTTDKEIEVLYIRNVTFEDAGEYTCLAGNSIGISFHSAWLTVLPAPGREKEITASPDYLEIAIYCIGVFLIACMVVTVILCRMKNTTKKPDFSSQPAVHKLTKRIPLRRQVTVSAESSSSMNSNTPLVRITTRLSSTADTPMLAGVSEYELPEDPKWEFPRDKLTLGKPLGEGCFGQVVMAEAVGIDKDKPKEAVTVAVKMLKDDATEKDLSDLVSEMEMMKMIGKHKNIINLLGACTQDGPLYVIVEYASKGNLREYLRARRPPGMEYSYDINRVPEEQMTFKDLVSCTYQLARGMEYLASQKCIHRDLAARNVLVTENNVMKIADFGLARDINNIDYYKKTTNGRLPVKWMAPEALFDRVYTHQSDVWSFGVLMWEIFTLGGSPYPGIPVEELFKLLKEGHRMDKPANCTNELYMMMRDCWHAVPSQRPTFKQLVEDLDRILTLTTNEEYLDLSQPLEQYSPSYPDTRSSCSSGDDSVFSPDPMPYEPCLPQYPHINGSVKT
How it was run: as §1

FGFR3 = FGFR3 (Homo sapiens (Human), UniProt P22607)
Sequence of FGFR3 (P22607 23-806): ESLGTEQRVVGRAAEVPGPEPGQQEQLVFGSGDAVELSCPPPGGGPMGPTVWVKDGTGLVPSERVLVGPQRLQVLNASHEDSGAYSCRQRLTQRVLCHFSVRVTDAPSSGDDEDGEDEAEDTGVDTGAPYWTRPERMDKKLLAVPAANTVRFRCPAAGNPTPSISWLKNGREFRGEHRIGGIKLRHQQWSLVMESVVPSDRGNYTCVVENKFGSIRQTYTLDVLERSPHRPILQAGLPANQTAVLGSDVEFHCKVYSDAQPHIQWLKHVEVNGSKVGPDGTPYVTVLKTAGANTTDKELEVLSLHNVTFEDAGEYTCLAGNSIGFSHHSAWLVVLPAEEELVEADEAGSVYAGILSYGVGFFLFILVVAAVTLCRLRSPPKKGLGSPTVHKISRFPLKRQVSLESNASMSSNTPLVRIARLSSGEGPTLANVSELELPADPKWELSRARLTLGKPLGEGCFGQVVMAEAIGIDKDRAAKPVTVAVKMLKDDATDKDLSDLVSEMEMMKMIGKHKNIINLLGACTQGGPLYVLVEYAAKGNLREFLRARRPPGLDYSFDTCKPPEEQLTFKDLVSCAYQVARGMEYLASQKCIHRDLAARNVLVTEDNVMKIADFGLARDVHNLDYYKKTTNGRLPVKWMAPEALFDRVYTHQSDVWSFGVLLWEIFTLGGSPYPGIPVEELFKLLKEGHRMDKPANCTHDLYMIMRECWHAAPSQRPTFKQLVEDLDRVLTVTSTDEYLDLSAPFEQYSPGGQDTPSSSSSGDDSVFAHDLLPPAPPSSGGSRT
How it was run: as §1

FGFR3 (V555M) = FGFR3 (V555M) (Homo sapiens (Human), UniProt P22607, V555M); conditions: V555M mutant
Sequence of FGFR3 (V555M) (P22607 23-806 V555M): as the sequence (P22607 23-806) above, with V533M counted along it
How it was run: as §1

FGFR4 = FGFR4 (Homo sapiens (Human), UniProt P22455)
Sequence of FGFR4 (P22455 22-802): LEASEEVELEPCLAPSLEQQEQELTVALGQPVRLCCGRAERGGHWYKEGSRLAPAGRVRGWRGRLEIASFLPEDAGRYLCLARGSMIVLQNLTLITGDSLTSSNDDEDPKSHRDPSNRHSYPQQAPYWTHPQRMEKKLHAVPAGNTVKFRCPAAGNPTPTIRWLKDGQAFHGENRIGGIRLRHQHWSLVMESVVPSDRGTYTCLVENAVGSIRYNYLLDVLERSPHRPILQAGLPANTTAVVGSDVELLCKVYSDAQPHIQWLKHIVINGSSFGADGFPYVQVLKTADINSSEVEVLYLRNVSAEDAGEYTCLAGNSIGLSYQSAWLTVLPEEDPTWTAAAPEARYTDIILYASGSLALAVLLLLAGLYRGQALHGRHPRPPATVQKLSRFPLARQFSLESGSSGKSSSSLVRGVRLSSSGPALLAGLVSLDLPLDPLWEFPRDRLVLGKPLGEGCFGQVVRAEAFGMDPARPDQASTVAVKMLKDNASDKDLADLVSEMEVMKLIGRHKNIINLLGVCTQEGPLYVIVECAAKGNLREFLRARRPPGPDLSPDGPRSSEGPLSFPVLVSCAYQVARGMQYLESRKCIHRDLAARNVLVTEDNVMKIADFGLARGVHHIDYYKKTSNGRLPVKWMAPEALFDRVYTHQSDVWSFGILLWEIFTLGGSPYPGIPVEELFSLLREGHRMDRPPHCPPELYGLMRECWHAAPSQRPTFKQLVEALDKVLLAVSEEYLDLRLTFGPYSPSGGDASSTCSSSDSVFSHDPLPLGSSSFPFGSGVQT
How it was run: as §1

Sequence of FGFR1 (P11362 22-822): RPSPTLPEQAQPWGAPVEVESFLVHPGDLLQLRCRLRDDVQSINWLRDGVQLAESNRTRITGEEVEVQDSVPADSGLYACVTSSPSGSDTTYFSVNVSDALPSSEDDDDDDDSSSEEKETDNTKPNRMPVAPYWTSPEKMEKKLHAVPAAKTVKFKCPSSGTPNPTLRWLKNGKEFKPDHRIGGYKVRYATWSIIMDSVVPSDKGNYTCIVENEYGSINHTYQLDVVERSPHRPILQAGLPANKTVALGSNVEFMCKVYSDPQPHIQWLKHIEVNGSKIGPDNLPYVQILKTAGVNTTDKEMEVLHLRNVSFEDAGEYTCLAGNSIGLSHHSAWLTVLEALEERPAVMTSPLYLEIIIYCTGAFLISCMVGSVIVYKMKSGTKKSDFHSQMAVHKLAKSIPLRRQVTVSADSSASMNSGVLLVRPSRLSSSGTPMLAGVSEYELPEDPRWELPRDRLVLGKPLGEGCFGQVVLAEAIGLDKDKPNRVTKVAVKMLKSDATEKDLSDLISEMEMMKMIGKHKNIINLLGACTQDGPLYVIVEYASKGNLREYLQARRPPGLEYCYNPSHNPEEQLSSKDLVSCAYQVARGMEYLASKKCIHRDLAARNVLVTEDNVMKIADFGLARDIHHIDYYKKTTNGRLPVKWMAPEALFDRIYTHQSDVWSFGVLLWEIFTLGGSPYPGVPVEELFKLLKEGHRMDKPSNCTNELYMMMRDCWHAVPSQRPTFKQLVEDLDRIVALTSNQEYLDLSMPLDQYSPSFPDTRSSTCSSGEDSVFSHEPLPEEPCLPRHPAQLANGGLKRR

- Kd (FGFR1): 1 to 20 nM
- Kd (FGFR2): 1 to 20 nM
- Kd (FGFR3): 1 to 20 nM
- Kd (FGFR3 (V555M)): 1 to 20 nM
- Kd (FGFR4): 1 to 20 nM
Structure (SMILES): C[C@@H](Oc1cc2c(-c3ccc(N4CC5(C4)CN(S(C)(=O)=O)C5)nc3)n[nH]c2cc1F)c1c(Cl)cncc1Cl [Example 255, (R)-5-(1-(3,5-dichloropyridin-4-yl)ethoxy)-6-fluoro-3-(6-(6-(methylsulfonyl)-2,6-diazaspiro[3.3]heptan-2-yl)pyridin-3-yl)-1H-indazole]

- Kd (FGFR1): 1 to 20 nM
- Kd (FGFR2): 1 to 20 nM
- Kd (FGFR3): 1 to 20 nM
- Kd (FGFR3 (V555M)): 1 to 20 nM
- Kd (FGFR4): 1 to 20 nM
Structure (SMILES): Cc1cnnc(C)c1[C@@H](C)Oc1ccc2[nH]nc(-c3ccc(N4CC5(CCOC5)C4)nc3)c2c1 [Example 206, (R)-2-(5-(5-(1-(3,5-dimethylpyridazin-4-yl)ethoxy)-1H-indazol-3-yl)pyridin-2-yl)-6-oxa-2-azaspiro[3.4]octane]

- Kd (FGFR1): > 300 nM
- Kd (FGFR2): 100 to 300 nM
- Kd (FGFR3): 20 to 100 nM
- Kd (FGFR3 (V555M)): 20 to 100 nM
- Kd (FGFR4): > 300 nM
Structure (SMILES): C[C@@H](Oc1ccc2[nH]nc(-c3ccc(N4CC5(C4)CN(S(C)(=O)=O)C5)nc3)c2c1)c1c(Cl)cnnc1Cl [Example 233, (R)-5-(1-(3,5-dichloropyridazin-4-yl)ethoxy)-3-(6-(6-(methylsulfonyl)-2,6-diazaspiro[3.3]heptan-2-yl)pyridin-3-yl)-1H-indazole]

- Kd (FGFR1): 1 to 20 nM
- Kd (FGFR2): 1 to 20 nM
- Kd (FGFR3): 1 to 20 nM
- Kd (FGFR3 (V555M)): 1 to 20 nM
- Kd (FGFR4): 1 to 20 nM
Structure (SMILES): C[C@@H](Oc1cc2c(-c3ccc(N4CC5(C4)CN(S(C)(=O)=O)C5)nc3)n[nH]c2cc1Cl)c1c(Cl)cnnc1Cl [Example 263, (R)-6-chloro-5-(1-(3,5-dichloropyridazin-4-yl)ethoxy)-3-(6-(6-(methylsulfonyl)-2,6-diazaspiro[3.3]heptan-2-yl)pyridin-3-yl)-1H-indazole]

- Kd (FGFR1): 20 to 100 nM
- Kd (FGFR2): 20 to 100 nM
- Kd (FGFR3): 1 to 20 nM
- Kd (FGFR3 (V555M)): 1 to 20 nM
- Kd (FGFR4): 1 to 20 nM
Structure (SMILES): C[C@@H](Oc1ccc2[nH]nc(-c3ccc(N4CC(C(F)(F)F)C4)nc3)c2c1)c1c(Cl)cncc1Cl [Example 249, (R)-5-(1-(3,5-dichloropyridin-4-yl)ethoxy)-3-(6-(3-(trifluoromethyl)azetidin-1-yl)pyridin-3-yl)-1H-indazole]

- Kd (FGFR1): 1 to 20 nM
- Kd (FGFR2): 1 to 20 nM
- Kd (FGFR3): 1 to 20 nM
- Kd (FGFR3 (V555M)): 1 to 20 nM
- Kd (FGFR4): 1 to 20 nM
Structure (SMILES): C[C@@H](Oc1cc2c(-c3cnc(N4CC5(C4)CN(S(C)(=O)=O)C5)c(F)c3)n[nH]c2cc1F)c1c(Cl)cnnc1Cl [Example 258, (R)-5-(1-(3,5-dichloropyridazin-4-yl)ethoxy)-6-fluoro-3-(5-fluoro-6-(6-(methylsulfonyl)-2,6-diazaspiro[3.3]heptan-2-yl)pyridin-3-yl)-1H-indazole]

- Kd (FGFR1): 20 to 100 nM
- Kd (FGFR2): 1 to 20 nM
- Kd (FGFR3): 1 to 20 nM
- Kd (FGFR3 (V555M)): 1 to 20 nM
- Kd (FGFR4): 1 to 20 nM
Structure (SMILES): Cc1cnnc(C)c1[C@@H](C)Oc1ccc2[nH]nc(-c3ccc(N4CC5(CCCN(S(C)(=O)=O)C5)C4)nc3)c2c1 [Example 188, 5-[(1R)-1-(3,5-dimethylpyridazin-4-yl)ethoxy]-3-[6-(8-methylsulfonyl-2,8-diazaspiro[3.5]nonan-2-yl)-3-pyridyl]-1H-indazole]

- Kd (FGFR1): 20 to 100 nM
- Kd (FGFR2): 20 to 100 nM
- Kd (FGFR3): 1 to 20 nM
- Kd (FGFR3 (V555M)): 1 to 20 nM
- Kd (FGFR4): 1 to 20 nM
Structure (SMILES): C[C@@H](Oc1ccc2[nH]nc(-c3ccc(N4CC5(C4)CN(S(C)(=O)=O)C5)nc3)c2c1)c1c(Cl)cnc(F)c1Cl [Example 197, 5-[(1R)-1-(3,5-dichloro-2-fluoro-4-pyridyl)ethoxy]-3-[6-(2-methylsulfonyl-2,6-diazaspiro[3.3]heptan-6-yl)-3-pyridyl]-1H-indazole]

- Kd (FGFR1): 1 to 20 nM
- Kd (FGFR2): 1 to 20 nM
- Kd (FGFR3): 1 to 20 nM
- Kd (FGFR3 (V555M)): 1 to 20 nM
- Kd (FGFR4): 1 to 20 nM
Structure (SMILES): C[C@@H](Oc1ccc2[nH]nc(-c3ccc(N4CC5(CCCNC5)C4)nc3)c2c1)c1c(Cl)cncc1Cl [Example 161, 3-[6-(2,8-diazaspiro[3.5]nonan-2-yl)-3-pyridyl]-5-[(1R)-1-(3,5-dichloro-4-pyridyl)ethoxy]-1H-indazole]

The next lines start with the compound.

Structure (SMILES): C[C@@H](Oc1cc2c(-c3cnc(N4CCC4)c(CN(C)C)c3)n[nH]c2cc1Cl)c1c(Cl)cncc1Cl [Example 366, (R)-1-(2-(azetidin-1-yl)-5-(6-chloro-5-(1-(3,5-dichloropyridin-4-yl)ethoxy)-1H-indazol-3-yl)pyridin-3-yl)-N,N-dimethylmethanamine]
- Kd (FGFR1): 100 to 300 nM
- Kd (FGFR2): > 300 nM
- Kd (FGFR3): 20 to 100 nM
- Kd (FGFR3 (V555M)): 20 to 100 nM
- Kd (FGFR4): 1 to 20 nM

Structure (SMILES): Cc1cc2[nH]nc(-c3cnc(N4CC5(C4)CN(S(C)(=O)=O)C5)c(F)c3)c2cc1O[C@H](C)c1c(Cl)cnc(C)c1Cl [Example 273, 5-[(1R)-1-(3,5-dichloro-2-methyl-4-pyridyl)ethoxy]-3-[5-fluoro-6-(2-methylsulfonyl-2,6-diazaspiro[3.3]heptan-6-yl)-3-pyridyl]-6-methyl-1H-indazole]
- Kd (FGFR1): 20 to 100 nM
- Kd (FGFR2): 20 to 100 nM
- Kd (FGFR3): 1 to 20 nM
- Kd (FGFR3 (V555M); given as a number): 1.8 nM
- Kd (FGFR4): 1 to 20 nM

Structure (SMILES): C[C@@H](Oc1cc2c(-c3cnc(N4CC(C)(C)C4)c(CN(C)C)c3)n[nH]c2cc1Cl)c1c(Cl)cncc1Cl [Example 371, (R)-1-(5-(6-chloro-5-(1-(3,5-dichloropyridin-4-yl)ethoxy)-1H-indazol-3-yl)-2-(3,3-dimethylazetidin-1-yl)pyridin-3-yl)-N,N-dimethylmethanamine]
- Kd (FGFR1): > 300 nM
- Kd (FGFR2): > 300 nM
- Kd (FGFR3): > 300 nM
- Kd (FGFR3 (V555M)): > 300 nM
- Kd (FGFR4): 100 to 300 nM

Structure (SMILES): C[C@H](Oc1ccc2[nH]nc(-c3cnc(N4CCC4)c(C#N)c3)c2c1)c1c(Cl)cnc(F)c1Cl [Example 283, (S)-2-(azetidin-1-yl)-5-(5-(1-(3,5-dichloro-2-fluoropyridin-4-yl)ethoxy)-1H-indazol-3-yl)nicotinonitrile]
- Kd (FGFR1): > 300 nM
- Kd (FGFR2): > 300 nM
- Kd (FGFR3): > 300 nM
- Kd (FGFR3 (V555M)): > 300 nM
- Kd (FGFR4): > 300 nM

Structure (SMILES): C[C@@H](Oc1ccc2[nH]nc(-c3cnc(N4CC5(CCCS(=O)(=O)C5)C4)c(C#N)c3)c2c1)c1c(Cl)cncc1Cl [Example 340, (R)-5-(5-(1-(3,5-dichloropyridin-4-yl)ethoxy)-1H-indazol-3-yl)-2-(6,6-dioxido-6-thia-2-azaspiro[3.5]nonan-2-yl)nicotinonitrile]
- Kd (FGFR1): 100 to 300 nM
- Kd (FGFR2): 100 to 300 nM
- Kd (FGFR3): 1 to 20 nM
- Kd (FGFR3 (V555M)): 100 to 300 nM
- Kd (FGFR4): 1 to 20 nM

Structure (SMILES): C[C@@H](Oc1ccc2[nH]nc(-c3cnc(N4CC(C#N)C4)c(C#N)c3)c2c1)c1c(Cl)cncc1Cl [Example 348, (R)-2-(3-cyanoazetidin-1-yl)-5-(5-(1-(3,5-dichloropyridin-4-yl)ethoxy)-1H-indazol-3-yl)nicotinonitrile]
- Kd (FGFR1): 20 to 100 nM
- Kd (FGFR2): > 300 nM
- Kd (FGFR3): 1 to 20 nM
- Kd (FGFR3 (V555M)): 1 to 20 nM
- Kd (FGFR4): 1 to 20 nM

Structure (SMILES): Cc1ncc(Cl)c([C@@H](C)Oc2ccc3[nH]nc(-c4cnc(N5CC(CC(F)(F)F)C5)c(C#N)c4)c3c2)c1Cl [Example 295, 5-[5-[(1R)-1-(3,5-dichloro-2-methyl-4-pyridyl)ethoxy]-1H-indazol-3-yl]-2-[3-(2,2,2-trifluoroethyl)azetidin-1-yl]pyridine-3-carbonitrile]
- Kd (FGFR1): > 300 nM
- Kd (FGFR2): > 300 nM
- Kd (FGFR3): > 300 nM
- Kd (FGFR3 (V555M)): 100 to 300 nM
- Kd (FGFR4): 20 to 100 nM

Structure (SMILES): Cc1cnnc(C)c1[C@@H](C)Oc1ccc2[nH]nc(-c3cnc(N4CCC5(CC4)CCS(=O)(=O)C5)nc3)c2c1 [Example 152, 8-[5-[5-[(1R)-1-(3,5-dimethylpyridazin-4-yl)ethoxy]-1H-indazol-3-yl]pyrimidin-2-yl]-2λ^6-thia-8-azaspiro[4.5]decane 2,2-dioxide]
- Kd (FGFR1): 20 to 100 nM
- Kd (FGFR2): 1 to 20 nM
- Kd (FGFR3): 1 to 20 nM
- Kd (FGFR3 (V555M)): 1 to 20 nM
- Kd (FGFR4): 1 to 20 nM

Structure (SMILES): CC(C)N1CC(n2cc(-c3n[nH]c4ccc(O[C@H](C)c5c(Cl)cncc5Cl)cc34)cn2)C1 [Example 86, 5-[(1R)-1-(3,5-dichloro-4-pyridyl)ethoxy]-3-[1-(1-isopropylazetidin-3-yl)pyrazol-4-yl]-1H-indazole]
- Kd (FGFR1): 1 to 20 nM
- Kd (FGFR2): 1 to 20 nM
- Kd (FGFR3): 1 to 20 nM
- Kd (FGFR3 (V555M)): 1 to 20 nM
- Kd (FGFR4): 1 to 20 nM

Structure (SMILES): Cc1ncc(Cl)c([C@@H](C)Oc2ccc3[nH]nc(-c4cnc(N5CC(O)C5)c(C#N)c4)c3c2)c1Cl [Example 308, 5-[5-[(1R)-1-(3,5-dichloro-2-methyl-4-pyridyl)ethoxy]-1H-indazol-3-yl]-2-(3-hydroxyazetidin-1-yl)pyridine-3-carbonitrile]
- Kd (FGFR1): > 300 nM
- Kd (FGFR2): > 300 nM
- Kd (FGFR3): 100 to 300 nM
- Kd (FGFR3 (V555M)): 20 to 100 nM
- Kd (FGFR4): 1 to 20 nM

Structure (SMILES): COc1cc2[nH]nc(-c3cnc(N4CC5(COC5)C4)c(C)c3)c2cc1O[C@H](C)c1c(C)cnnc1C [Example 219, (R)-6-(5-(5-(1-(3,5-dimethylpyridazin-4-yl)ethoxy)-6-methoxy-1H-indazol-3-yl)-3-methylpyridin-2-yl)-2-oxa-6-azaspiro[3.3]heptane]
- Kd (FGFR1): 20 to 100 nM
- Kd (FGFR2): 1 to 20 nM
- Kd (FGFR3): 1 to 20 nM
- Kd (FGFR3 (V555M)): 1 to 20 nM
- Kd (FGFR4): 1 to 20 nM

Structure (SMILES): COc1cc2[nH]nc(-c3cnc(N4CCCC4)c(C#N)c3)c2cc1O[C@H](C)c1c(Cl)cncc1Cl [Example 333, 5-[5-[(1R)-1-(3,5-dichloro-4-pyridyl)ethoxy]-6-methoxy-1H-indazol-3-yl]-2-pyrrolidin-1-yl-pyridine-3-carbonitrile]
- Kd (FGFR1): 100 to 300 nM
- Kd (FGFR2): 100 to 300 nM
- Kd (FGFR3): 20 to 100 nM
- Kd (FGFR3 (V555M)): 1 to 20 nM
- Kd (FGFR4): 1 to 20 nM

Structure (SMILES): C[C@@H](Oc1ccc2[nH]nc(-c3cnc(N4CCCC4)c(C#N)c3)c2c1)c1c(Cl)cncc1Cl [Example 285, 5-[5-[(1R)-1-(3,5-dichloro-4-pyridyl)ethoxy]-1H-indazol-3-yl]-2-pyrrolidin-1-yl-pyridine-3-carbonitrile]
- Kd (FGFR1): > 300 nM
- Kd (FGFR2): > 300 nM
- Kd (FGFR3): 100 to 300 nM
- Kd (FGFR3 (V555M)): 20 to 100 nM
- Kd (FGFR4): 1 to 20 nM

Reference: patent US20240109865A1, “INDAZOLE COMPOUNDS AS KINASE INHIBITORS” (TYRA BIOSCIENCES, INC., priority 2020, published 2024)
